Data set [1] is described as follows: Human hepatic intrinsic clearance (CLint) assay in human hepatocytes. Type of data set: in vitro ADME. Particulars: human, human hepatocytes in suspension, pH 7.4, human hepatocytes. An excerpt:
The hepatic metabolic component of human clearance is predicted from scaled in vitro intrinsic clearance (CLint) data from human hepatocytes (see Chem Biol Interact. 2007, 168(1), 2-15) and from the extent of human blood binding, primarily due to plasma protein binding. The well stirred model of the liver is a model for predicting blood clearance in the liver from intrinsic clearance (CLint) determined using hepatocytes. (see Drug Metab Dispos. 2005, 33(9), 1304-11) The model is usually written as:
Human Hepatic Intrinsic Clearance (CLint) Assay
For the majority of drugs, a large component of their plasma clearance is contributed by hepatic metabolism. Intrinsic clearance (CLint) is a measure of the potential of a compound to undergo metabolism and can be related to hepatic clearance in vivo from a consideration of plasma protein binding and liver blood flow. Therefore, CLint may be used as an index of the relative metabolic stability of compounds within a project and compared with other external probe substrates. Furthermore, the measurement of CLint in vitro within a research project, where hepatic metabolic clearance is known to be an issue, may be a useful means of understanding the different pharmacokinetic behaviour of the compounds in vivo.
This following description outlines a method for estimating intrinsic clearance (CLint) from human hepatocyte incubations using suspension buffer containing no HSA (human serum albumin) and maintaining physiological conditions of pH 7.4.
Hepatocytes were prepared by a two-step in situ collagenase perfusion method of a portion of the human liver, suspended in protein free buffer (see below) and stored on ice, prior to incubation.
This method is based on the procedure of Seglen (Preparation of rat liver cells. I. Effect of Ca^2+ on enzymatic dispersion of isolated, perfused liver. Exptl. Cell Res., 1972, 74, p450 and preparation of isolated rat liver cells. Methods Cell Biol., 1976, 13, p 29) which itself was developed from the one step procedure of Berry and Friend (High-yield preparation of isolated rat liver parenchymal cells. J. Cell Biol., 1969, 43, p 506).
Suspension medium: 2.34 g Na HEPES, 2.0 g HSA fraction V, 0.4 g D-fructose, DMEM (1 L powder equivalent, Sigma; w/1 g.1^−1 glucose, w/Na pyruvate, w/o NaHCO3, w/o phenol red), made up to 1 L with Milli-Q water, pH to 7.4 with 1 M HCl. (Protein free suspension buffer is made omitting the 2.0 g HSA fraction V)
The capsule of a liver which has been perfused with digestion medium was cut open and the cells gently teased out into the medium. The cells were then passed through a mesh (approximately 250 μM) into a beaker containing 50 ml suspension medium. The mesh was rinsed through into the beaker with further suspension buffer to a final volume of 100 ml. The suspension was divided between two plastic 50 mL centrifuge tubes (pre-cooled on ice) and centrifuged at 50×g for 2 min at 4° C. The supernatants were decanted and the pellets re-suspended in protein free suspension buffer to the original volume. The centrifugation step was repeated and each pellet re-suspended in approximately 10 ml protein free suspension buffer. The suspensions were combined and the volume made up to 50 mL with protein free suspension buffer.
An aliquot of cell suspension (0.2 mL) was diluted with 0.2 ml protein free suspension buffer. To the diluted cells was added 0.2 mL trypan blue solution (0.4% w/v) followed by gentle mixing. After 1 min, a pasteur pipette was used to withdraw a sample and fill an Improved Neubauer Counting Chamber by capillary action. The cells were then counted (central square only) using an inverted microscope, viable cells being able to exclude the dye and non-viable cells being stained. The percentage of viable cells in the preparation was calculated thus: […]

For another data set, the system named is human plasma proteins. The data set is described as follows: Measurement of plasma protein binding (PPB) by equilibrium dialysis. In kind it is in vitro ADME. Particulars: human plasma; for Human plasma protein binding PPB (% free): equilibrium dialysis, 37° C., pH 7.4. Here is the method:
(§1) Measurement of Plasma Protein Binding (PPB)
(§2) The extent of binding of a drug to plasma proteins is a crucial factor in determining its in vivo potency and pharmacokinetics. The method used for determining the extent of plasma protein binding involves equilibrium dialysis of the compound between plasma and buffer at 37° C. The concentrations of compound in the plasma and buffer are then determined using high pressure liquid chromatography (HPLC) with mass spectroscopy (MS) detection. The dialysis method involves the use of mixtures of up to 10 compounds simultaneously. It has been shown that at the concentrations used in the assay, there is no significant difference in the results when compounds are run singly or in mixtures.
(§3) Membranes (molecular weight cut-off 5000) were first prepared by soaking in the dialysis buffer for a minimum of 1 hour. The dialysis membranes were then mounted into the dialysis cells.
(§4) Stock solutions of compounds in dimethylsulphoxide (DMSO) were prepared. This, and all subsequent liquid handling steps, were normally done using a Tecan liquid handling robot. Mixtures of up to five compounds were used. The concentration of each compound in a mixture was normally 1 mM. The mixtures were chosen such that each mixture contains compounds that all have at least a 5 unit difference in molecular weight from one another.
(§5) Frozen plasma (EDTA anticoagulant) was normally used for the human plasma binding experiment. The pH of the plasma was adjusted to 7.4 using 1 M HCl immediately before use.
(§6) The stock DMSO solution of compounds (7.5 μL) was then added to the dialysis cells along with plasma (750 μl). This was done in duplicate for each mixture. This gave a 1% DMSO in plasma solution with each compound at a concentration of 10 μM (if the stock solution was the standard 1 mM). The dialysis cells were then sealed, secured in a Dianorm rotator unit and equilibrated for 18 hours at 37° C. While the dialysis cells were being equilibrated, the DMSO stock solutions were used for generating optimised HPLC/MS methods for use in the final analysis of the plasma and buffer samples.
(§7) After equilibration, the cells were opened and a Tecan liquid handling robot was used to remove aliquots from the plasma and buffer sides of each of the dialysis cells. Blank plasma was then added to the buffer samples and buffer added to the plasma samples such that each sample was in a matrix of 6-fold diluted plasma. Standards were then prepared from the DMSO stock solutions and blank 6-fold diluted plasma. The concentrations of the four standards were normally 50 nM, 150 nM, 500 nM and 2500 nM.
(§8) The samples and standards were then analysed using HPLC with MS detection, which allows deconvolution of the mixtures of compounds. The HPLC method involved a forward flushing column switching technique that allows direct injection of the diluted plasma.
(§9) The chromatograms were processed using MassLynx software that automatically i 5 calculates a calibration curve for each compound in a mixture and then interpolates the concentrations of buffer and plasma samples. These concentrations still need corrections for the dilution of the plasma. The percentage bound was calculated from the MassLynx data using the following equation: […]
(§10) The factor of 1.2 in the numerator accounts for the small dilution of the aqueous samples with plasma. The factor of 6 in the denominator serves to correct for the 6-fold dilution of the plasma samples with buffer.
(§11) The % free (100-% bound) for each compound was calculated from the concentration data, and then recorded.
A general note: In equilibrium dialysis free small molecules cross a membrane that holds back macromolecules.

Experiment in data set [2]: as above
In kind it is in vitro ADME, human. To be noted: human, plasma, pH 7.4, human plasma, equilibrium dialysis, 37° C., pH 7.4; read-out: Human plasma protein binding PPB (% free). On the procedure:
as §1, §2, §3, §4, §5, §6, §7, §8, §9, §10, §11

[3] abbreviates: protein free suspension buffer, pH 7.4, 37° C., read-out: Human hepatocyte Intrinsic-clearance assay CLint.
Where [4] appears, read: unit inferred, read-out: hepatic intrinsic clearance (Clint).

The values that follow come from patent US20100016275A1, “NOVEL COMPOUND 395” (priority 2008, published 2010).

Where two headings read alike, the source gives them in different places.

As for `CS(=O)(=O)Nc1cc(NC(CO)CO)nc(SCc2ccccc2)n1` [Example 21], the hepatocyte CLint at 1 µM in data set [1] (setting [3]) and in data set [1] (setting [4]) was 2.3 µL/min/1e6 cells throughout.
As to `Cc1ccc(CSc2nc(N[C@H](C)CO)cc(NS(=O)(=O)N3CCC3)n2)c(F)c1C` [Example 41], in data set [1] (setting [3]), the hepatocyte CLint at 1 µM amounted to 12 µL/min/1e6 cells. Also, in the data set with human plasma proteins, the “Human plasma protein binding PPB (% free)” value came out at 0.6 % free.
For the compound `Cc1ccc(CSc2nc(N[C@H](C)CO)cc(NS(=O)(=O)N3CCC3)n2)c(F)c1C` [Example 42], the “Human plasma protein binding PPB (% free)” value in the data set on human plasma proteins is less than 0.2 % free.
Regarding `Cc1cccc(CSc2nc(N[C@H](C)CO)cc(NS(C)(=O)=O)n2)c1F` [Example 39], the hepatocyte CLint at 1 µM in data set [1] (setting [3]) was 5.1 µL/min/1e6 cells. In addition, the fraction unbound at 18 h, 10 µM in data set [2] was found to be 0.01.
Regarding `Cc1cccc(CSc2nc(N[C@H](C)CO)cc(NS(=O)(=O)N3CCC3)n2)c1F` [Example 40], the hepatocyte CLint at 1 µM in data set [1] (setting [3]) turned out to be 9 µL/min/1e6 cells. For the same compound, the fraction unbound at 18 h, 10 µM in data set [2] was less than 0.002.
On to `C[C@@H](Nc1cc(NS(=O)(=O)N2CCC2)nc(SCc2cccc(F)c2F)n1)[C@@H](O)CO` [Example 1, N-(2-[(2,3-difluorobenzyl)thio]-6-{[(1R,2R)-2,3-dihydroxy-1-methylpropyl]amino}pyrimidin-4-yl)azetidine-1-sulfonamide], for which the hepatocyte CLint at 1 µM in data set [1] (setting [3]) and in data set [1] (setting [4]) was 2.1 µL/min/1e6 cells throughout. Also, the fraction unbound at 18 h, 10 µM in data set [2] turned out to be 0.019. Also, in the data set with human plasma proteins, the “free fraction in human plasma (in words)” value was “favourable free fraction in human plasma”.
